Data reported in patent US10450317B2, “Notch pathway signaling inhibitor compounds” (Eli Lilly and Company, priority 2015, dated 2019).
Where “and” joins values, the source holds several entries; their conditions need not be identical. Equal entries are not always repeated.

Assays:
cleaved Notch1 (N1ICD) = test: In-vivo target inhibition study, cleaved N1ICD in lung by ELISA; parameters: species or system Balb/C mice; conditions: mouse lung
Experimental: To evaluate in vivo effect of Compound 1, Isomer 2 and. Compound 2, Isomer 2 on inhibition of Notch processing pharmacodynamics (PD), animal studies were conducted in non-tumor bearing Balb/C mice (Charles River). A total of 5 mice are used for each group. Mice are fed ad libitum on normal chow. Treatment is initiated with oral administration (gavage) of compound or vehicle (1% Na-CMC in 0.25% Tween-80) in 0.2 mL volume. At designated time points (4 or 8 hours after the dose) following treatment, animals are sacrificed by CO2 asphyxiation and cervical dislocation. Tissues (Lungs) are removed and used for PD response analysis as measured by cleaved N1ICD.
To evaluate N1ICD levels in lung, approximately 75 mg is cut from the frozen tissue and minced prior to homogenization (actual mass recorded). […] are transferred to Lysing Matrix-D™ tubes and re-suspended in ice-cold XY lysis buffer (25 mM Tris pH 7.5, 10 μg/ml Trypsin/Chymotrypsin inhibitor, 10 μg/ml Aprotinin, 60 mM Beta-glycerol phosphate, 1% Triton® X-100, 10 mM NaF, 2.5 mM pyrophosphate, 150 mM NaCl, 15 mM ethylene diamine tetra acetic acid (EDTA) pH 8.0, 5 mM ethylene glycol-bis(2-aminoethylether)-N,N,N′,N′-tetra acetic acid (EGTA) pH 8.0, 1 mM Na Vanadate, 10 μg/ml Leupeptin, 1 mM dithiothreitol, 1 μM microcystin LR, 10 μg/ml N-p-tosyl-L-phenylalanine chloromethyl ketone (TPCK), 2 mM Nα-p-tosyl-L-arginine methyl ester hydrochloride (TAME), 15 mM 4-nitrophenyl phosphate di(tris) salt (PNPP), 0.1 mM 4-(2-aminoethyl) benzenesulfonyl fluoride hydrochloride (AEBSF), 5 mM benzamidine, 1 μM Okadaic Acid) containing 1× Complete tablet (Roche Complete™ No. 11697 498 001) and 1× Protease Inhibitor cocktail (Sigma-Aldrich P8340) at a mass: volume ratio of 75 mg/ml buffer. Tissues are homogenized in a Fast Prep FP120 homogenizer (Thermo Scientific, Rockford, Ill.) at a speed of 6.0 for 30 seconds at 4° C., followed by 15 minute incubation on ice. This is repeated for a total of 2-3 cycles until homogenization is complete. Lysates are spun in a 4° C. eppendorf centrifuge at 30,000 rpm for 15 minutes to remove debris. 400 μl of supernatant is removed and transferred to a new eppendorf tube and subjected to a freeze/thaw cycle. Samples are re-spun in a 4° C. eppendorf centrifuge at 30,000 rpm for 30 minutes and 120 μl of supernatant is collected for analysis. Total protein concentration is determined using Pierce BCA Protein Assay Kit™ (Thermo Scientific, Rockford, Ill.) using a Thermomax™ plate reader (Molecular Devices, Sunnyvale, Calif.). N1ICD levels are determined using a custom N1ICD ELISA. Analyte is captured with a cleaved Notch1 (Val1744)-specific custom rabbit monoclonal antibody and detected with a C-terminal Notch1 SULFO-TAG™ (Meso Scale Discovery, Gaithersburg, Md.) polyclonal sheep antibody (R&D Systems, Minneapolis, Minn.). Lysates are diluted to 2 μg/μl in ice-cold ELISA tris lysis buffer (R6OTX) (Meso Scale Discovery, Gaithersburg, Md.) containing 1× Complete tablet (Roche Complete™ mini No. 11 836 153 001) and 1× Protease Inhibitor cocktail (Sigma-Aldrich P8340), and 25 μl is added to the ELISA plate. Incubation of 50 μg protein lysate is done at RT for one hour each to capture analyte and with detection antibody. Plates are read on a Sector Imager 6000™ (Meso Scale Discovery, Gaithersburg, Md.). Background subtracted N1ICD is normalized to total protein and presented as % inhibition relative to the vehicle-treated group. N1ICD % inhibition and statistical significance (p value) as measured by Dunett's method in tumors harvested 4 hours after last dose for Compound 1, Isomer 2 or Compound 2, Isomer 2 is analyzed essentially as described above and summarized in Table 1.

HEK293ΔE12 cells = test: Relative cytotoxicity profiling (% cell number) in the N1ICD imaging assay; assay type: cell-based, human; conditions: up to 1000 nM concentration, 24 hours treatment
Experimental: (§1) HEK293ΔE12 cells (HEK293 cells are engineered to stably express mouse Notch1 cDNA coding for amino acid 1703-2183, Np_932740.3, (Full length mouse Notch 1 protein precursor: SEQ ID NO:1) with 23 amino acid signal peptide sequence, […] (SEQ ID NO:2), at its N-terminus) are plated at 5000 cells/well in 96 well plates, incubated in Dulbecco's Modified. Eagle's Medium (DMEM)-high glucose with 5% fetal bovine serum (FBS) at 37° C., 5% CO2 for 24 hours. Cells are treated with test compound, dosing at 10 points of 1:3 dilutions across the range of 1000 nM to 0.05 nM, and with final dimethyl sulfoxide (DMSO) concentration at 0.2%. […] Plates are scanned with ACUMEN EXPLORER™ Laser-scanning fluorescence microplate cytometer (TTP LABTECH LTD) to measure total cell nuclear count/well and total nuclear area/well with fluorescence at 655 nm-705 nm (emission of DNA bound propidium iodide) and fluorescence of antibody binding to N1ICD in nuclear region at 505 nm-530 nm. The main assay output is a ratio of total fluorescence of nuclear N1ICD to total nuclear area, the normalized nuclear N1ICD signal. […] Concentration response and the IC50 are determined by curve fitting to a four parameter logistic for the nuclear N1ICD signal, while the % cell number is plotted in the same graph for cytotoxicity profiling.

mouse Notch1 = test: Notch1 N1ICD nuclear accumulation cellular imaging assay; assay type: cell-based; conditions: HEK293ΔE12 cells, 24 hours treatment, n=2; read-out: average IC50 for the nuclear N1ICD signal
Experimental: as §1

[1] = oral 10 mg/kg, 4 hours following treatment

SMILES	% N1ICD inhibition (Ave ± SD; n = 1) (cleaved Notch1 (N1ICD); oral 0.3 mg/kg, 8 hours following treatment)	% N1ICD inhibition (Ave ± SD; n = 1) (cleaved Notch1 (N1ICD); oral 1 mg/kg, 8 hours following treatment)	% N1ICD inhibition (Ave ± SD; n = 1) (cleaved Notch1 (N1ICD); oral 3 mg/kg, 8 hours following treatment)	% N1ICD inhibition (Ave ± SD; n = 1) (cleaved Notch1 (N1ICD); [1])	% N1ICD inhibition (Ave ± SD; n = 1) (cleaved Notch1 (N1ICD); oral 10 mg/kg, 8 hours following treatment, listed as 1, Isomer 2, 10 mg/kg)	% N1ICD inhibition (Ave ± SD; n = 1) (cleaved Notch1 (N1ICD); oral 30 mg/kg, 8 hours following treatment)	% N1ICD inhibition (Ave ± SD; n = 1) (cleaved Notch1 (N1ICD); oral 100 mg/kg, 8 hours following treatment)	effect on cell number (cytotoxicity profiling) (HEK293ΔE12 cells)	IC50 (mouse Notch1)	% N1ICD inhibition (Ave ± SD; n = 1) (cleaved Notch1 (N1ICD); oral 10 mg/kg, 8 hours following treatment)
COc1ccc2c(c1)N1CCC(C)(C)C1=CC(=O)C2NC(=O)[C@H](C)NC(=O)CCC(F)(F)F (single isomer, unassigned) [Compound 1, Isomer 2]	−7 ± 26%	6 ± 15%	11 ± 13%	70 ± 12%	52 ± 31% and 65 ± 11%	87 ± 3%	92 ± 3%	Neither compound affects cell number	0.37 nM	–
C[C@H](NC(=O)CCC(F)(F)F)C(=O)NC1C(=O)C=C2N(CCC2(C)C)c2ncccc21 (single isomer, unassigned) [Compound 2, Isomer 2]	–	–	–	65 ± 11%	–	–	–	Neither compound affects cell number	1.55 nM	15 ± 14%
